According to US20140142180A1, “METHODS OF TREATING TUMORS HAVING ELEVATED MCT1 EXPRESSION” (Whitehead Institute for Biomedical Research, priority 2012, published 2014):

Columns and labels:
breast cancer lines = assay: 3-BrPA sensitivity versus MCT1 protein level in breast cancer lines; type: cell-based, human
Procedure: (§1) Cell lines (5,000-20,000) were seeded in 96-well plates and treated with indicated amounts of 3-BrPA. After 3 days of treatment, CellTiter-Glo (Promega) and/or CyQuant (Invitrogen) were used to measure survival percentage for each concentration compared to untreated cells. FACS analysis with Annexin V and 7AAD staining was performed according to manufacturer's manual (BD Pharmingen).
Briefly, cells were rinsed twice in ice-cold PBS and harvested in a standard lysis buffer containing 50 mM Hepes, pH 7.4, 40 mM NaCl, 2 mM EDTA, 1.5 mM orthovanadate, 50 mM NaF, 10 mM pyrophosphate, 10 mM glycerophosphate, protease inhibitors (Roche) and 1% Triton-X-100. Proteins from total lysates were resolved by 8-12% SDS-PAGE, and analyzed by immunoblotting as described using anti-MCT1 (Millipore; Ab3540), anti-RPS6 and anti-raptor antibodies (1:1000)^50. For quantitation, ImageJ software was used and the signals were normalized using an equal loading control (RPS6/Raptor). Immunohistochemistry was performed on formalin-fixed paraffin embedded sections using a boiling Dako antigen retrieval method (Dako). A 1:500 dilution of the anti-MCT1 antibody was used for staining.

MDA-MB-231 cells [1] = assay: 14C-3-BrPA uptake, parental and MCT1-overexpressing MDA-MB-231 cells; type: cell-based, human; details: MCT1-overexpressing vs parental MDA-MB-231
MDA-MB-453 cells = assay: Cell survival assay, MDA-MB-453; type: cell-based, human; details: MDA-MB-453, low MCT1 level
Procedure: as §1
(§2) 15 cell lines (BT-474, BT-549, CAK1-1, CAL-51, HCC-70, HS578T, JURKAT, MDA-MB-157, MDA-MB-231, MDA-MB-453, MDA-MB-468, PC-3, SK-BR-3, T47D, ZR-75-1) were treated with 3-BrPA (0-300 μM). After 3 days, cell viability was quantified via CellTiter-Glo assay and an IC50 from the resulting dose-response curve was interpolated using a nonlinear regression model. Transcriptome-wide normalized mRNA levels from gene expression profiling experiments performed on the Affymetrix Human Genome U133 Plus 2.0 chip were obtained from the CCLE for all 15 cell lines. The mRNA expression pattern across all 15 samples for each of the genes was then correlated with the IC50 values. Similar correlation analysis was performed using OCR/ECAR values for each cell line.

MDA-MB-468 cells = assay: Cell survival assay, MDA-MB-468; type: cell-based, human
Procedure: as §1, §2

MT-3 cells = assay: Cell survival assay, MT-3; type: cell-based, human; details: MT-3, increased MCT1 level
Procedure: as §1

HCC-70 cells = assay: Cell survival assay, HCC-70; type: cell-based, human; details: HCC-70, increased MCT1 level
Procedure: as §1, §2

[2] = tested on: AMPK and ACC phosphorylation; assay: Immunoblot of AMPK and ACC phosphorylation, wild type KBM7 cells; type: cell-based, human; details: 50 μM 3-BrPA
BT-549 cells = assay: Cell survival assay, BT-549; type: cell-based, human
Procedure: as §1, §2

[3] = tested on: glyceraldehyde phosphate dehydrogenase (GAPDH); assay: LC-MS metabolite profiling, wild type relative to MCT1-null KBM7 cells; type: cell-based, human
Procedure: (§3) The bioenergetic profiles of KBM7 and MDA-MB-231 cells in response to 3-BrPA were determined using a Seahorse Bioscience XF24 Extracellular Flux Analyzer (Seahorse Bioscience). For the indicated experiments, 250,000 KBM7 or 40,000 MDA-MB-231 cells seeded in Seahorse tissue culture plates using unbuffered RPMI (10 mM Glucose). KBM7 cells were attached to the plates using CellTak (Clontech) one hour prior to the start of the experiment. For AUC (area under the curve) OCR and ECAR measurements, three consecutive readings were performed for each cell line. For experiments where 3-BrPA is used, after 3 consecutive readings, 50 μM 3-BrPA was injected through port A and ECAR and OCAR levels were measured. Lactate production was measured as described previously^50. For ATP assays, 20,000 cells were seeded and treated for 30 min with indicated amounts of 3-BrPA and ATP levels were determined using a luciferase-based assay (Promega). For metabolite measurements, 10 million wild type and MCT1 null KBM7 cells were cultured for 1 hour in presence of 50 μM 3-BrPA before metabolite extraction. Then, cells were rapidly washed three times with cold PBS, and then metabolites were extracted by addition of 80% ice-cold methanol followed after incubation on dry ice for 15 min. Endogenous metabolite profiles were obtained using LC-MS as described^51. Metabolite levels (n=3) were normalized to cell number.

T47D cells = assay: Cell survival assay, T47D; type: cell-based, human; details: low MCT1 level
Procedure: as §1, §2

parental KBM7 cells = assay: Extracellular flux analysis (ECAR), parental KBM7 cells; type: cell-based, human; details: 50 μM 3-BrPA
Procedure: as §3

MDA-MB-231 cells [4] = assay: Cell survival assay, MDA-MB-231; type: cell-based, human
Procedure: as §1, §2

ER negative cells = assay: 3-BrPA sensitivity of ER negative tumor cell lines; type: cell-based; details: MCT1 expressed at high levels
[5] = wild type relative to MCT1-null KBM7, 50 μM, 1 hour, LC-MS

O=C(O)C(=O)CBr [3-BrPA, 3-bromopyruvic acid]
sensitivity to 3-BrPA (breast cancer lines; breast cancer lines with high MCT1 protein levels): sensitive
sensitivity to 3-BrPA (breast cancer lines; breast cancer lines with low to no MCT1): resistant to even high concentrations
14C-3-BrPA uptake with MCT1 expression (MDA-MB-231 cells [1]): enhance
sensitivity to 3-BrPA (MDA-MB-453 cells): resistant
sensitivity to 3-BrPA (MDA-MB-468 cells; MDA-MB-468, increased MCT1 level): sensitive
sensitivity to 3-BrPA with suppression of GAPDH expression by RNAi (MDA-MB-468 cells; MDA-MB-468 expressing shRNA targeted to GAPDH vs GFP control): markedly increased the sensitivity
sensitivity to 3-BrPA (MT-3 cells): sensitive
sensitivity to 3-BrPA (HCC-70 cells): sensitive
AMPK and ACC phosphorylation, markers of energy stress [2]: robustly increasing
sensitivity to 3-BrPA (BT-549 cells; BT-549, increased MCT1 level): sensitive
sensitivity to 3-BrPA with suppression of GAPDH expression by RNAi (BT-549 cells; BT-549 expressing shRNA targeted to GAPDH vs GFP control): markedly increased the sensitivity
sensitivity to 3-BrPA with partial suppression of MCT1 by RNAi (BT-549 cells; BT-549 expressing shRNAs targeting MCT1): sufficient to confer resistance
intermediates of the pentose phosphate pathway ([3]; wild type KBM7, 50 μM, 1 hour, LC-MS): accumulated intermediates of the pentose phosphate pathway
glycolytic intermediates after glyceraldehyde 3-phosphate [3, 5]: depletion of those that come after
glycolytic intermediates preceding glyceraldehyde 3-phosphate [3, 5]: accumulation of the glycolytic intermediates that precede glyceraldehyde 3-phosphate
cause of anti-glycolytic effects from metabolite profiling ([3]; wild type vs MCT1-null KBM7 metabolite profiling): strongly implicates GAPDH inhibition
sensitivity to 3-BrPA (T47D cells): resistant
extracellular acidification rate (ECAR), a proxy for lactate production (parental KBM7 cells): substantial decrease
sensitivity to 3-BrPA (MDA-MB-231 cells [4]; MDA-MB-231, low MCT1 level): resistant
sensitivity to 3-BrPA with stable expression of MCT1 (MDA-MB-231 cells [4]; MDA-MB-231 stably expressing MCT1 cDNA): sufficient to sensitize
sensitivity to 3-BrPA (ER negative cells): highly sensitive
